Experimental data as given in US12275731B2, “Azaindole inhibitors of wild-type and mutant forms of LRRK2” (DANA-FARBER CANCER INSTITUTE, INC., priority 2018, dated 2025).

Tests used:
Assay in all cases: KinomeScan profiling
Format in all cases: binding
CDK5 = CDK5 (Homo sapiens, UniProt Q00535); conditions: CDK5, 1 μM; read-out: % control
Summary of the method: (§1)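 Percent-of-control values derive from RLU, calculated as (test − positive)/(negative − positive) × 100, where DMSO defines 100% and a positive control compound defines 0%. Each compound was tested at 1 μM in the 468-kinase panel; sub-35% readings indicate activity.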

MET = MET (Homo sapiens, UniProt P08581); conditions: read-out: % control
Summary of the method: as §1

CDK4 = CDK4 (Homo sapiens, UniProt P11802); conditions: CDK4, 1 μM; read-out: % control
Summary of the method: as §1

ULK1 = target: T1, ULK1 (Homo sapiens, UniProt O75385); conditions: ULK1, 1 μM; read-out: % control
T1 sequence (O75385 1-1050): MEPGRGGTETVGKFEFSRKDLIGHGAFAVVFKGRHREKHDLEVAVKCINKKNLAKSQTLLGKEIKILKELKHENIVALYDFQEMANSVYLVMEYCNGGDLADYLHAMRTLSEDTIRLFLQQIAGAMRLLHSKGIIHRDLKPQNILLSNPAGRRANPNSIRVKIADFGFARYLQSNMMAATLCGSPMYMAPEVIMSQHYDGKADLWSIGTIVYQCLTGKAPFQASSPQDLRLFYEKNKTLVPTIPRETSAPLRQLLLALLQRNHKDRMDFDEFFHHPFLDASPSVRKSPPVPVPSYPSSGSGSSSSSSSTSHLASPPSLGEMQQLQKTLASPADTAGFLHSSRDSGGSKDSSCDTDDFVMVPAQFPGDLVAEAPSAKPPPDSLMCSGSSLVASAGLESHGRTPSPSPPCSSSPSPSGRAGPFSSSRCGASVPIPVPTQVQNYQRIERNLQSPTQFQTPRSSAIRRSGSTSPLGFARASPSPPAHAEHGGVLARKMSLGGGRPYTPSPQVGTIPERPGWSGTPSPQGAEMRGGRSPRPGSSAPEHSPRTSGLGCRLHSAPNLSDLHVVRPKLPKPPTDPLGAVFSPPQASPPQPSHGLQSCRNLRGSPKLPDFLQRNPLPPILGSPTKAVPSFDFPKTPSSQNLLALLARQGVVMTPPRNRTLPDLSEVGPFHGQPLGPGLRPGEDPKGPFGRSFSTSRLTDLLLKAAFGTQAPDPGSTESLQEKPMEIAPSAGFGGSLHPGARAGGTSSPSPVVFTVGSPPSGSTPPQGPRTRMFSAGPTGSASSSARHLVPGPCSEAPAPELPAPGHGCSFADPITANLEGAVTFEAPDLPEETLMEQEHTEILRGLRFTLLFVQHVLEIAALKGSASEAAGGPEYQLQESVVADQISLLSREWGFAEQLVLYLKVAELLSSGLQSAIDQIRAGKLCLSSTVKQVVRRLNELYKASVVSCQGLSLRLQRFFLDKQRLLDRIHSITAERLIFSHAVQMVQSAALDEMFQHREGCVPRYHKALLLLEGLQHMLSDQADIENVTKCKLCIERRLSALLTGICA
Summary of the method: as §1

WNK1 = WNK1 (Homo sapiens, UniProt Q9H4A3); conditions: WNK1, 1 μM; read-out: % control
Summary of the method: as §1

FGFR2 = FGFR2 (Homo sapiens, UniProt P21802); conditions: FGFR2, 1 μM; read-out: % control
Summary of the method: as §1

TEC = target: T2, TEC (Homo sapiens, UniProt P42680); conditions: read-out: % control
T2 sequence (P42680 1-631): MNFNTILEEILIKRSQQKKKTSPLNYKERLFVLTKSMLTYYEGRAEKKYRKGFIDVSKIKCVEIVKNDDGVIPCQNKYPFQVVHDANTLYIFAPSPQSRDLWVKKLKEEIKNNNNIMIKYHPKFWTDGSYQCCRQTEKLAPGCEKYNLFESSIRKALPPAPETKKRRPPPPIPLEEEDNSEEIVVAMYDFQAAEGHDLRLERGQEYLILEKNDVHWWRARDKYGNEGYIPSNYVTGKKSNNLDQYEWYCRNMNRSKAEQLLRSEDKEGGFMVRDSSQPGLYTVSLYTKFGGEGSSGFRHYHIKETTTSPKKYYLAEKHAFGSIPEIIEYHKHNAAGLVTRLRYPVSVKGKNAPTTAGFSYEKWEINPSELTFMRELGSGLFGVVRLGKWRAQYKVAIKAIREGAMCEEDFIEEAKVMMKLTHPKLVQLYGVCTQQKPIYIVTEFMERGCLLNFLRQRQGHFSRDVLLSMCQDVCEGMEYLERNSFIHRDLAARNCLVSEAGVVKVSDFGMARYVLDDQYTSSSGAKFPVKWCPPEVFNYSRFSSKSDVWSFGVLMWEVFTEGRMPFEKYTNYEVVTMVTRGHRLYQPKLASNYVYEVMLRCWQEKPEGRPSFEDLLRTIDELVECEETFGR
Summary of the method: as §1

Sequence of CDK4 (P11802 whole entry): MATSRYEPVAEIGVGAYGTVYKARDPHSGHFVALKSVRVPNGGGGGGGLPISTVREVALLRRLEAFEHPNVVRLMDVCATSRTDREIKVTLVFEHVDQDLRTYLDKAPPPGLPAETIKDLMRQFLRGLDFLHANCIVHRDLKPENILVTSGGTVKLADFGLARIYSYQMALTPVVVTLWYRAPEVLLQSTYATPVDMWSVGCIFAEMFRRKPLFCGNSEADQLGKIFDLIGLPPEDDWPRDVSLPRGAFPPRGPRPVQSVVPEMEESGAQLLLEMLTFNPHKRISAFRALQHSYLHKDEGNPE
Sequence of CDK5 (Q00535 whole entry): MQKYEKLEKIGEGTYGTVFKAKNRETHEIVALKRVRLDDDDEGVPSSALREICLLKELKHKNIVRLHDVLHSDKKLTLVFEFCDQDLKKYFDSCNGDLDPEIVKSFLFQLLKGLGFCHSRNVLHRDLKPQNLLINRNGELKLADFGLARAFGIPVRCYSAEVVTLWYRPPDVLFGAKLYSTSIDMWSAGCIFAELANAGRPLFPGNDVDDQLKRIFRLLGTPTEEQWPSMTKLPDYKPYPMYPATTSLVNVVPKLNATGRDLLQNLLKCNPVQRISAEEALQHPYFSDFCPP
Sequence of MET (P08581 25-1390): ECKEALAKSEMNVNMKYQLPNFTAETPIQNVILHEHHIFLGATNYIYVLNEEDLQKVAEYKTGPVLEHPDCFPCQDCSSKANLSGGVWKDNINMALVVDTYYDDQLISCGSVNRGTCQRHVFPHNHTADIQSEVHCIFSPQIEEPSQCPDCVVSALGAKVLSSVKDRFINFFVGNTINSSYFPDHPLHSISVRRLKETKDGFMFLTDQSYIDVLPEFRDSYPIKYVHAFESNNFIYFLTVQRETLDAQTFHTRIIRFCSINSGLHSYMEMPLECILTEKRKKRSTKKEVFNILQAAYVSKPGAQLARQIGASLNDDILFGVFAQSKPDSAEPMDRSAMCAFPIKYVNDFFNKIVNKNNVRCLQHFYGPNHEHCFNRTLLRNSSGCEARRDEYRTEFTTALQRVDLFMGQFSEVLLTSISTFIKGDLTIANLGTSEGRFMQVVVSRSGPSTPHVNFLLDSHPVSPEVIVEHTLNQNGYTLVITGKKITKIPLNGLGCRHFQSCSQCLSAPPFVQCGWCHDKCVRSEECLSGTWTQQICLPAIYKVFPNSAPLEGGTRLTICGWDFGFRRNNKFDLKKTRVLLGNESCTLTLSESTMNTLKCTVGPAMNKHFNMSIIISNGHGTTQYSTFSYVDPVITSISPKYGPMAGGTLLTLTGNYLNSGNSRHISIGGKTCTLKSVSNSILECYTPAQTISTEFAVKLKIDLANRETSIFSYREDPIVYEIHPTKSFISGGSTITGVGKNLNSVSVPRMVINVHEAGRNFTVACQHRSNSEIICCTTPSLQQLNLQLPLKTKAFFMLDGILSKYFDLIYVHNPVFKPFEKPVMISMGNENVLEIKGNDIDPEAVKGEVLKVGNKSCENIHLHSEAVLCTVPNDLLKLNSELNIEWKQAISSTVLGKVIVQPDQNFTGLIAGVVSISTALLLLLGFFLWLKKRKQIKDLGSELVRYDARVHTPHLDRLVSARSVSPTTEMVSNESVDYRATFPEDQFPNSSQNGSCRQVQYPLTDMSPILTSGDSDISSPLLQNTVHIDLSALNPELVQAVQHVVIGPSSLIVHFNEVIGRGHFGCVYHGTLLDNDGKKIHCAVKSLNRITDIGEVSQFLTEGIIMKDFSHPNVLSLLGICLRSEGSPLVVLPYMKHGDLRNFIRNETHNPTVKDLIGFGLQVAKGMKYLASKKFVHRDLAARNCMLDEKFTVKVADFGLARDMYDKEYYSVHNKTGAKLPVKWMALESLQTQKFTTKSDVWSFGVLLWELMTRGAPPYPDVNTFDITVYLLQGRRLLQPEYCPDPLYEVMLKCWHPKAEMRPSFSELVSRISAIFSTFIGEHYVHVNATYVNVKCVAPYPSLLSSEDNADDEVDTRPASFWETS
Sequence of FGFR2 (P21802 22-821): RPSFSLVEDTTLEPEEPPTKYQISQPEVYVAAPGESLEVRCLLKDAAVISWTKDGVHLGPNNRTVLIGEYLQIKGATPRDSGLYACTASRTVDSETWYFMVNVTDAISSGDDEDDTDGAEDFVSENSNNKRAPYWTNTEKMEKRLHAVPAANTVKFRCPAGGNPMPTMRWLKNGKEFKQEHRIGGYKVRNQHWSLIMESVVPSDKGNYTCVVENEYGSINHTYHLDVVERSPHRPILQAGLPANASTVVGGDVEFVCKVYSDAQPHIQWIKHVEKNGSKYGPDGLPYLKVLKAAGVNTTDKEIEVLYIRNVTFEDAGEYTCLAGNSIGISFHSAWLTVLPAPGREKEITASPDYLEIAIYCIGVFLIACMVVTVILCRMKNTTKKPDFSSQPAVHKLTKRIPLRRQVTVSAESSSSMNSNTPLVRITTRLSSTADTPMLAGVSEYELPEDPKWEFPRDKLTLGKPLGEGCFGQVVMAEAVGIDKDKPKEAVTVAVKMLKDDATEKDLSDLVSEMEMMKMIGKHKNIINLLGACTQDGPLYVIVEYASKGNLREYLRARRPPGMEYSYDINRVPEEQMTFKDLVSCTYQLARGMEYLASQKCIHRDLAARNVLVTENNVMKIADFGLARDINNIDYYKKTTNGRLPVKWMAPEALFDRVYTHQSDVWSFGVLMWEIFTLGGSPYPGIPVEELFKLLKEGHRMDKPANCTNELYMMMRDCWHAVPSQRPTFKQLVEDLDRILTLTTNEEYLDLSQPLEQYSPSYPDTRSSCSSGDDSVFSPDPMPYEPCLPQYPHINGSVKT

Compound `CNc1c(-c2cnn([C@H]3CCN(C(C)=O)C[C@@H]3F)c2)cnc2[nH]cc(Cl)c12` [Compound 77, 1-((3S,4S)-4-(4-(3-chloro-4-(methylamino)-1H-pyrrolo[2,3-b]pyridin-5-yl)-1H-pyrazol-1-yl)-3-fluoropiperidin-1-yl)ethan-1-one] has a remaining binding at 1 µM (CDK5) of 91%, a remaining binding at 1 µM (MET) of 63% and a remaining binding at 1 µM (CDK4) of 85%. It also gave a remaining binding at 1 µM (ULK1) of 3.1%, a remaining binding at 1 µM (WNK1) of 67% and a remaining binding at 1 µM (FGFR2) of 72%. The remaining binding at 1 µM (TEC) was 100%.

`CNc1c(-c2ccc(C(=O)N3CCC(N4CCOCC4)CC3)cc2)cnc2[nH]cc(Cl)c12` [Compound 96, (4-(3-chloro-4-(methylamino)-1H-pyrrolo[2,3-b]pyridin-5-yl)phenyl)(4-morpholinopiperidin-1-yl)methanone] showed a remaining binding at 1 µM (CDK5) of 97%, a remaining binding at 1 µM (MET) of 84% and a remaining binding at 1 µM (CDK4) of 98%. The remaining binding at 1 µM (ULK1) was 3.8%, the remaining binding at 1 µM (WNK1) was 80% and the remaining binding at 1 µM (FGFR2) was 94%. It also gave a remaining binding at 1 µM (TEC) of 100%.

With `O=C(c1ccc(-c2cnc3[nH]cc(Cl)c3c2NC2CCCC2)cc1)N1CCC(N2CCOCC2)CC1` [Compound 101, (4-(3-chloro-4-(cyclopentylamino)-1H-pyrrolo[2,3-b]pyridin-5-yl)phenyl)(4-morpholinopiperidin-1-yl)methanone] the remaining binding at 1 µM (CDK5) was 94%, the remaining binding at 1 µM (MET) was 16% and the remaining binding at 1 µM (CDK4) was 100%. The remaining binding at 1 µM (ULK1) was 73%, the remaining binding at 1 µM (WNK1) was 90% and the remaining binding at 1 µM (FGFR2) was 54%. The remaining binding at 1 µM (TEC) was 93%.
